# Laboratory results published in ChEMBL document CHEMBL1151847, “In vitro skin diffusion study of pure forskolin versus a forskolin-containing Plectranthus barbatus root extract” (J Nat Prod, 2009).
# Assays:
# Zone of skin [1] = test: Permeability across guinea pig skin assessed as drug content per gram of wet tissue applied topically after 24 hrs by LC-MS analysis; type: ADME, tissue-based, Cavia porcellus; details: topical_or_ocular
# Zone of skin [2] = test: Permeability across guinea pig skin assessed as cumulative drug content applied topically after 24 hrs by LC-MS analysis; type: ADME, tissue-based, Cavia porcellus; details: topical_or_ocular
# Zone of skin [3] = test: Permeability across human skin assessed as permeation lag time applied topically after 24 hrs by LC-MS analysis; type: ADME, tissue-based
# Zone of skin [4] = test: Permeability across human skin assessed as drug content per gram of wet tissue applied topically after 24 hrs by LC-MS analysis; type: ADME, tissue-based
# Zone of skin [5] = test: Permeability across guinea pig skin assessed as permeation lag time applied topically after 24 hrs by LC-MS analysis; type: ADME, tissue-based, Cavia porcellus; details: topical_or_ocular
# [6] = Ratio of permeability flux across guinea pig skin to permeability flux across human skin; type: ADME, tissue-based, Zone of skin
# Zone of skin [7] = test: Permeability across human skin assessed as cumulative drug content applied topically after 24 hrs by LC-MS analysis; type: ADME, tissue-based
compound,measurement,setting,value
C=C[C@@]1(C)CC(=O)[C@]2(O)[C@@]3(C)[C@@H](O)CCC(C)(C)[C@@H]3[C@H](O)[C@H](OC(C)=O)[C@@]2(C)O1 [COLFORSIN],Drug uptake,Zone of skin [1],5.8 µmol
same,Drug uptake,Zone of skin [2],75.6 nmol
same,Activity,Zone of skin [3],1.5 h
same,Drug uptake,Zone of skin [4],20 µmol
same,Activity,Zone of skin [5],2.8 h
same,Ratio,[6],19
same,Drug uptake,Zone of skin [7],3.8 nmol
